According to patent US4079133A, “Safer method for dissolving gallstones combining hyodeoxycholic acid with chenodeoxycholic acids” (Warren-Teed Laboratories, Inc., priority 1976, dated 1978):

Assays:
[1] = parameters: species or system Long-Evans female rats; conditions: rat, in vivo
Method: Ten Long-Evans female rats were divided into two groups of five each. The rats were fed Purina® lab chow mixed with CDCA or dried hog bile. The dried hog bile contains approximately 25% CDCA and approximately 40% HDCA and was mixed in the feed at four times the concentration as CDCA so that each group of rats would receive approximately 600 mg. CDCA/kg./day. Following a 2 week treatment, the 10 rats plus five control rats were sacrificed and the blood collected for liver enzyme determinations.

[2] = Pharmacological studies employing rats: liver damage and safening effect (summary statements); type: in vivo
From the text: The compositions are generally administered in a ratio of CDCA to HDCA in the range of from about 0.7 to about 2.0 and, preferably in the range of from about 0.8 to about 1.5. […] Hog bile generally contains from about 10 to about 50% CDCA and from about 10 to about 50% of HDCA in addition to other bile acids.

[3] = CDCA alone, or HDCA with CDCA relative to CDCA

Compound: C[C@H](CCC(=O)O)[C@H]1CC[C@H]2[C@@H]3[C@H](O)C[C@@H]4C[C@H](O)CC[C@]4(C)[C@H]3CC[C@]12C [CDCA, 3α, 7α-dihydroxy-5β-cholanic acid]
- Bodyweights, Week 0 [1]: 284.6 gms
- Bodyweights, Week 1 [1]: 256.4 gms
- Feed Consumption, Week 0 [1]: 18.6 gms/da
- Feed Consumption, Week 2 [1]: 11.7 gms/da
- periportal hepatitis ([2]; CDCA alone): slight to mild periportal hepatitis
- alkaline phosphatase (alk. phos.) in the blood [2, 3]: elevations
- serum glutamic pyruvic transaminase (SGPT) in the blood [2, 3]: elevations
- serum glutamic-oxaloacetic transaminase (SGOT) in the blood [2, 3]: elevations
- nuclear enlargement of the hepatocytes ([2]; CDCA alone, slight to mild periportal hepatitis also seen): nuclear enlargement of the hepatocytes
